Where two headings read alike, the source gives them in different places. One block for each molecule: values may come before it.
What was measured:
[1] = Ionic conductivity measurements; type: physicochemical
Protocol: Ionic Conductivity Measurements A homemade conductivity cell was constructed with two polished stainless steel parallel plates (˜0.3 cm^2) separated by ˜0.2 cm in a Teflon cup. The entire cell was placed in a sealed vial to minimize electrolyte evaporation. To calibrate the cell constant, two conductivity standards (Sigma Aldrich) were used, 25 and […]. The calibrated cell constant was calculated to be 0.706 cm′±0.008 cm^−1. […] […] The electrochemical impedance spectrum was collected from 1 MHz to 0.5 Hz with an AC amplitude of 10 mV. The electrolyte resistance was taken as the impedance where the phase angle is as close to […] as possible in order to minimize any contribution from capacitance or inductance. All conductivity measurements were performed in an argon filled glove box.

[2] = Solubility of potassium salts in DME; conditions: mol fraction of salt
[3] = Cyclic voltammetry, oxidative stability window in diglyme
Protocol: The counter electrode was lithium metal. […] The scan rate for each CV measurement was 50 mV/s. The Al dissolution resistance was measured by cyclic voltammetry of a 2-electrode Li∥Al CR2032 coin cell. The potential was swept from 2 V to 6.1 V for a total of 5 cycles. The cell consisted of Li foil and aluminum foil (1.77 cm^2) separated by a 25 μm trilayer celgard membrane (polypropylene-polyethylene-polypropylene).
Since it has been reported that increasing the salt concentration also improves the electrochemical window,^103,107 the stability window of each electrolyte at its highest concentration was examined. In a 3-electrode cell using a platinum working electrode, Li metal counter and a silver wire reference to avoid electrolyte contamination, cyclic voltammetry was used to examine the oxidative window. Multiple scans were collected to see if there was any change with repeat cycling to highly positive voltages (FIG. 5). As a comparison, the most concentrated possible LiTFSI solution (0.2 mol fraction) was also tested.

[4] = Solubility of lithium salts in diglyme; type: physicochemical
Text: In order to probe structure-property relationships among sulfonamide salts, the ionic conductivity was investigated in diglyme solvent and compared with that of LiTFSI. Ethers such as diglyme have strong Lewis basicity, high chemical stability and can dissolve lithium salts via Li+ cation coordination by the lone pair on the oxygen atom.^105 However, the solubility of LiTFSI is relativity low and cannot access the concentrated electrolyte regime. This is in stark contrast to all of the sulfonamide salts investigated here. The solubility of the salts increase in the order LiTFSI<LiMPSA<LiFBSA≈LiFPSA≈LiDESA. To the best of the inventors' knowledge, in ether solvent, these sulfonamide salts have the highest solubility among any lithium salt (0.4× salt, molar ratio diglyme: Salt […]). The ionic conductivity of these electrolytes were investigated as a function of concentration (FIG. 4). The sulfonamide based electrolytes span a much larger concentration range of up to 0.4 mol fraction, where LiTFSI can only be increased up to 0.2 mol fraction. […] This could be due to reduced viscosity of the electrolytes with fluorinated derivatives as well as the ability of the ether oxygen within LiMPSA and LiDESA to coordinate the lithium cation even at low concentrations in a similar fashion to that of diglyme solvent. […]

Structure (SMILES): COCCC[N-]S(=O)(=O)C(F)(F)F.[K+] [KMPSA]
ionic conductivity ([1]; 0.6× KMPSA/DME electrolyte, 25° C.): 0.037 mS/cm
ionic conductivity ([1]; molten salt, 45° C.): 0.003 mS/cm
solubility (mol fraction that can be reached) [2]: 0.6 X

Structure (SMILES): O=S(=O)([N-]S(=O)(=O)C(F)(F)F)C(F)(F)F.[K+] [KTFSI, potassium bis(trifluoromethanesulfonyl)imide, reference compound]
solubility (mol fraction that can be reached) [2]: ~0.34 X

Structure (SMILES): O=S(=O)([N-]S(=O)(=O)C(F)(F)F)C(F)(F)F.[Li+] [LiTFSI, lithium bis(trifluoromethanesulfonyl)imide, reference compound]
potential above which rapid decomposition occurs ([3]; 0.2 mol fraction in diglyme, Pt working electrode, 50 mV/s): above 5 V
oxidative stability window (in words) ([3]; each electrolyte at its highest concentration in diglyme (LiTFSI 0.2, LiFPSA 0.4, LiDESA 0.4, LiMPSA 0.33 mol fraction)): one of the lowest stabilities
solubility (highest concentration reached) [4]: up to 0.2 mol fraction

More lines, now with the values ahead:

ionic conductivity compared with salts with an incorporated ether group ([1]; in diglyme): higher ionic conductivity
oxidative stability window (in words) [3]: smallest stability window
Structure (SMILES): O=S(=O)([N-]CC(F)(F)C(F)(F)F)C(F)(F)F.[Li+] [LiFPSA]

oxidative stability window (in words) [3]: one of the highest stabilities
potential out to which cycles after the first show high stability [3]: 6-7 V
Structure (SMILES): COCCC[N-]S(=O)(=O)C(F)(F)F.[Li+] [LiMPSA]
